From ChEMBL document CHEMBL1201862, “PubChem BioAssay data set” (2004)
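Interpolation was linear, between the two tested concentrations surrounding the appropriate level; five concentrations were tested over 48 hours in 96-well plates. GI50: concentration for 50% inhibition of growth.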 Calls of active or inactive are those of the source. Rule as the data show it: active = GI50 up to about 1.1 µM and inactive = higher.

Key:
Assay in all cases: inhibition of tumour cell growth, NCI panel, 48 h
786-0 = tested on: 786-0
A498 = tested on: A498
CAKI-1 = tested on: CAKI-1
COLO 205 = tested on: COLO 205
K562 = tested on: K562
KM-20L2 = tested on: KM-20L2
LOX IMVI = tested on: LOX IMVI
Malme-3M = tested on: Malme-3M
NCI-H522 = tested on: NCI-H522
OVCAR-5 = tested on: OVCAR-5
SF-268 = tested on: SF-268
SK-MEL-2 = tested on: SK-MEL-2
SW-620 = tested on: SW-620
U-251 = tested on: U-251

## O=c1c2ccc3cccc4c(=O)cc(c5ccccc15)-c2c34
786-0
  GI50: > 100 µM (inactive)
A498
  GI50: > 100 µM (inactive)
CAKI-1
  GI50: > 100 µM (inactive)
COLO 205
  GI50: > 100 µM (inactive)
K562
  GI50: 54.5 µM (inactive)
KM-20L2
  GI50: > 100 µM (inactive)
LOX IMVI
  GI50: 29.2 µM (inactive)
Malme-3M
  GI50: 30.5 µM (inactive)
NCI-H522
  GI50: 76.9 µM (inactive)
OVCAR-5
  GI50: > 100 µM (inactive)
SF-268
  GI50: > 100 µM (inactive)
SK-MEL-2
  GI50: 22 µM (inactive)
SW-620
  GI50: > 100 µM (inactive)
U-251
  GI50: 45.4 µM (inactive)

## COc1cc([C@@H]2c3cc4c(cc3[C@@H](NCc3cccc(F)c3)C3COC(=O)[C@@H]32)OCO4)cc(OC)c1O (some centres undefined)
786-0
  GI50: 2.29 µM (inactive)
A498
  GI50: 2.68 µM (inactive)
CAKI-1
  GI50: 6.85 µM (inactive)
COLO 205
  GI50: 12.9 µM (inactive)
K562
  GI50: 6.49 µM (inactive)
KM-20L2
  GI50: 6.64 µM (inactive)
LOX IMVI
  GI50: 3.58 µM (inactive)
Malme-3M
  GI50: 4.69 µM (inactive)
NCI-H522
  GI50: 6.93 µM (inactive)
OVCAR-5
  GI50: 13.9 µM (inactive)
SF-268
  GI50: 5.92 µM (inactive)
SK-MEL-2
  GI50: 12.9 µM (inactive)
SW-620
  GI50: 5.06 µM (inactive)
U-251
  GI50: 1.23 µM (inactive)

## NC(=O)N/N=C/C(=C/Nc1ccccc1)[N+](=O)[O-]
786-0
  GI50: > 100 µM (inactive)
COLO 205
  GI50: > 100 µM (inactive)
K562
  GI50: > 100 µM (inactive)
KM-20L2
  GI50: > 100 µM (inactive)
LOX IMVI
  GI50: > 100 µM (inactive)
NCI-H522
  GI50: > 100 µM (inactive)
SF-268
  GI50: > 100 µM (inactive)
SW-620
  GI50: > 100 µM (inactive)
U-251
  GI50: > 100 µM (inactive)

## CC(=O)Oc1cc(OC(C)=O)c2cc3c(cc2c1OC(C)=O)C(=O)C1(CCCC1)C3=O
786-0
  GI50: 17.2 µM (inactive)
CAKI-1
  GI50: 11.4 µM (inactive)
COLO 205
  GI50: 17.4 µM (inactive)
K562
  GI50: 14.7 µM (inactive)
KM-20L2
  GI50: 22.1 µM (inactive)
LOX IMVI
  GI50: 14.3 µM (inactive)
Malme-3M
  GI50: 17.9 µM (inactive)
SF-268
  GI50: 22.5 µM (inactive)
SW-620
  GI50: 16.3 µM (inactive)
U-251
  GI50: 18.1 µM (inactive)

## COc1nc(NC2OC(COC(C)=O)C(OC(C)=O)C(OC(C)=O)C2OC(C)=O)c2c(OC(C)=O)cc(=O)oc2n1 (centres undefined)
786-0
  GI50: > 100 µM (inactive)
A498
  GI50: 15.9 µM (inactive)
CAKI-1
  GI50: > 100 µM (inactive)
COLO 205
  GI50: > 100 µM (inactive)
K562
  GI50: > 100 µM (inactive)
KM-20L2
  GI50: > 100 µM (inactive)
LOX IMVI
  GI50: > 100 µM (inactive)
Malme-3M
  GI50: > 100 µM (inactive)
OVCAR-5
  GI50: > 100 µM (inactive)
SK-MEL-2
  GI50: > 100 µM (inactive)
SW-620
  GI50: > 100 µM (inactive)
U-251
  GI50: > 100 µM (inactive)

## Cc1cccc(C)c1NC(=O)C1=NC(=S)NC(c2ccccc2)C1c1nc2ccccc2s1 (centres undefined)
786-0
  GI50: > 100 µM (inactive)
A498
  GI50: > 100 µM (inactive)
CAKI-1
  GI50: > 100 µM (inactive)
COLO 205
  GI50: > 100 µM (inactive)
K562
  GI50: > 100 µM (inactive)
KM-20L2
  GI50: > 100 µM (inactive)
Malme-3M
  GI50: > 100 µM (inactive)
NCI-H522
  GI50: > 100 µM (inactive)
SF-268
  GI50: > 100 µM (inactive)
SK-MEL-2
  GI50: > 100 µM (inactive)
SW-620
  GI50: > 100 µM (inactive)
U-251
  GI50: > 100 µM (inactive)

## O=C(NC1C2CC3CC(C2)CC1C3)c1ccncn1 (centres undefined)
786-0
  GI50: > 100 µM (inactive)
A498
  GI50: > 100 µM (inactive)
CAKI-1
  GI50: > 100 µM (inactive)
COLO 205
  GI50: > 100 µM (inactive)
K562
  GI50: > 100 µM (inactive)
KM-20L2
  GI50: > 100 µM (inactive)
Malme-3M
  GI50: > 100 µM (inactive)
NCI-H522
  GI50: > 100 µM (inactive)
OVCAR-5
  GI50: > 100 µM (inactive)
SF-268
  GI50: > 100 µM (inactive)
SK-MEL-2
  GI50: > 100 µM (inactive)
SW-620
  GI50: > 100 µM (inactive)
U-251
  GI50: > 100 µM (inactive)

## Cc1ccc(C)c(N2C/C(=N\NC(=O)CC#N)C(c3nc4ccccc4s3)C(=O)C2=O)c1 (centres undefined)
786-0
  GI50: > 100 µM (inactive)
A498
  GI50: > 100 µM (inactive)
CAKI-1
  GI50: > 100 µM (inactive)
COLO 205
  GI50: > 100 µM (inactive)
KM-20L2
  GI50: > 100 µM (inactive)
Malme-3M
  GI50: > 100 µM (inactive)
NCI-H522
  GI50: > 100 µM (inactive)
SF-268
  GI50: > 100 µM (inactive)
SK-MEL-2
  GI50: > 100 µM (inactive)
SW-620
  GI50: > 100 µM (inactive)
U-251
  GI50: > 100 µM (inactive)

## C[C@@H](CC(O)C1OC1(C)C)[C@@H]1CC[C@]2(C)C3=CCC4C(C)(C)C(O)CC[C@]4(C)C3CCC12C (some centres undefined)
786-0
  GI50: 16 µM (inactive)
A498
  GI50: 26.5 µM (inactive)
COLO 205
  GI50: 21.3 µM (inactive)
K562
  GI50: 6.84 µM (inactive)
KM-20L2
  GI50: 15.4 µM (inactive)
LOX IMVI
  GI50: 24.8 µM (inactive)
Malme-3M
  GI50: 13 µM (inactive)
NCI-H522
  GI50: 11.8 µM (inactive)
OVCAR-5
  GI50: 38 µM (inactive)
SF-268
  GI50: 26.3 µM (inactive)
SK-MEL-2
  GI50: 18.6 µM (inactive)
SW-620
  GI50: 38.9 µM (inactive)
U-251
  GI50: 30.5 µM (inactive)

## CCN(CC)CC(=O)N1CCc2c([nH]c3ccccc23)C1c1cccnc1 (centres undefined)
786-0
  GI50: > 100 µM (inactive)
A498
  GI50: > 100 µM (inactive)
CAKI-1
  GI50: > 100 µM (inactive)
K562
  GI50: > 100 µM (inactive)
KM-20L2
  GI50: > 100 µM (inactive)
LOX IMVI
  GI50: > 100 µM (inactive)
NCI-H522
  GI50: > 100 µM (inactive)
OVCAR-5
  GI50: > 100 µM (inactive)
SF-268
  GI50: > 100 µM (inactive)
SW-620
  GI50: > 100 µM (inactive)
U-251
  GI50: > 100 µM (inactive)

## CCN(CC)CCCN1CCc2c([nH]c3ccccc23)C1c1cccnc1 (centres undefined)
786-0
  GI50: > 100 µM (inactive)
A498
  GI50: > 100 µM (inactive)
CAKI-1
  GI50: > 100 µM (inactive)
COLO 205
  GI50: > 100 µM (inactive)
K562
  GI50: > 100 µM (inactive)
KM-20L2
  GI50: > 100 µM (inactive)
LOX IMVI
  GI50: > 100 µM (inactive)
Malme-3M
  GI50: 74.1 µM (inactive)
NCI-H522
  GI50: > 100 µM (inactive)
OVCAR-5
  GI50: > 100 µM (inactive)
SK-MEL-2
  GI50: > 100 µM (inactive)
SW-620
  GI50: > 100 µM (inactive)
U-251
  GI50: > 100 µM (inactive)

## CN(C)CCC(/C=C/c1ccccc1)=N\Nc1ccccc1
786-0
  GI50: 2.03 µM (inactive)
A498
  GI50: 12.5 µM (inactive)
COLO 205
  GI50: 1.96 µM (inactive)
K562
  GI50: 0.325 µM (active)
KM-20L2
  GI50: 0.241 µM (active)
LOX IMVI
  GI50: 0.0493 µM (active)
Malme-3M
  GI50: 3.07 µM (inactive)
NCI-H522
  GI50: 1.84 µM (inactive)
OVCAR-5
  GI50: 1.98 µM (inactive)
SF-268
  GI50: 0.736 µM (active)
SW-620
  GI50: 0.335 µM (active)
U-251
  GI50: 1.83 µM (inactive)

## CC/C(C)=C1\CCC(CN2CCOCC2)C1=O (centres undefined)
786-0
  GI50: 10.1 µM (inactive)
A498
  GI50: 21.2 µM (inactive)
CAKI-1
  GI50: 2.47 µM (inactive)
K562
  GI50: 7.46 µM (inactive)
KM-20L2
  GI50: 19.2 µM (inactive)
LOX IMVI
  GI50: 16.4 µM (inactive)
Malme-3M
  GI50: 17.7 µM (inactive)
OVCAR-5
  GI50: 17.5 µM (inactive)
SF-268
  GI50: 11.5 µM (inactive)
SK-MEL-2
  GI50: 17.8 µM (inactive)
SW-620
  GI50: 15.1 µM (inactive)

## COC(=O)C(CC1=C(O)Nc2ccccc2N1)/C(=N/NC(N)=O)C(=O)Nc1ccccc1C (centres undefined)
786-0
  GI50: > 100 µM (inactive)
A498
  GI50: > 100 µM (inactive)
CAKI-1
  GI50: > 100 µM (inactive)
COLO 205
  GI50: 28.5 µM (inactive)
K562
  GI50: 97.7 µM (inactive)
KM-20L2
  GI50: > 100 µM (inactive)
LOX IMVI
  GI50: 17.8 µM (inactive)
Malme-3M
  GI50: > 100 µM (inactive)
NCI-H522
  GI50: 16.8 µM (inactive)
OVCAR-5
  GI50: > 100 µM (inactive)
SF-268
  GI50: 16.5 µM (inactive)
SK-MEL-2
  GI50: > 100 µM (inactive)
U-251
  GI50: > 100 µM (inactive)

## Cn1c2cccc3nnc4cccc(c4c32)n1C
786-0
  GI50: > 100 µM (inactive)
A498
  GI50: > 100 µM (inactive)
CAKI-1
  GI50: 21.2 µM (inactive)
COLO 205
  GI50: > 100 µM (inactive)
K562
  GI50: > 100 µM (inactive)
KM-20L2
  GI50: > 100 µM (inactive)
LOX IMVI
  GI50: > 100 µM (inactive)
Malme-3M
  GI50: > 100 µM (inactive)
OVCAR-5
  GI50: > 100 µM (inactive)
SF-268
  GI50: > 100 µM (inactive)
SK-MEL-2
  GI50: > 100 µM (inactive)
SW-620
  GI50: > 100 µM (inactive)
U-251
  GI50: > 100 µM (inactive)

## ON1CCc2c([nH]c3ccccc23)C1c1ccc(Cl)cc1 (centres undefined)
786-0
  GI50: 32.1 µM (inactive)
A498
  GI50: 33.1 µM (inactive)
COLO 205
  GI50: 32.9 µM (inactive)
K562
  GI50: 18.2 µM (inactive)
KM-20L2
  GI50: 21.7 µM (inactive)
LOX IMVI
  GI50: 18.8 µM (inactive)
Malme-3M
  GI50: 29.4 µM (inactive)
NCI-H522
  GI50: 28.1 µM (inactive)
OVCAR-5
  GI50: 31.3 µM (inactive)
SF-268
  GI50: 33 µM (inactive)
SK-MEL-2
  GI50: 23.1 µM (inactive)
SW-620
  GI50: 33.2 µM (inactive)
U-251
  GI50: 15.2 µM (inactive)
